Source: US12048686B2, “Compositions and methods for activating NRF2-dependent gene expression” (The University of Chicago, priority 2018, dated 2024)

Tests used:
Type in all cases: cell-based
[1] = system: MHS cells (a murine alveolar macrophage cell line); experiment: PM- or LPS-induced mRNA expression in MHS cells
Procedure: FIG. 14A-B. MHS cells (a murine alveolar macrophage cell line) were treated with particulate matter (PM) or LPS and vehicle control (media) in the absence or presence of CBR-470-1 (pretreated 4 hours prior to PM/LPS) and measured IL-6 mRNA 4 hours later.
FIG. 15A-B. MHS cells were treated with particulate matter (PM) or LPS and vehicle control (media) in the absence or presence of CBR-470-1 (also noted as Drug in the figure) (pretreated 4 hours prior to PM/LPS) and measured TNFa and NQO1 mRNA 4 hours later. […] NQO1 (NAD(P)H:quinone oxidoreductase), also known as DT-diaphorase, is a major regulator of oxidative stress and activator of mitomycins. ROS produced during metabolic processes are normally converted into harmless products by antioxidant enzymes such as NQO1.
FIG. 16A-B. MHS cells were treated with particulate matter (PM) or LPS and vehicle control (media) in the absence or presence of different doses of CBR-470 (pretreated 4 hours prior to PM/LPS) and measured IL-6 mRNA 4 hours later.
FIG. 17A-B. MHS cells were treated with particulate matter (PM) or LPS and vehicle control (media) in the absence or presence of different doses of CBR-470-1 (pretreated 4 hours prior to PM/LPS) and measured TNFa and NQO1 mRNA 4 hours later.
FIG. 18A-C. MHS cells were treated with particulate matter (PM) or LPS and vehicle control (media) in the absence or presence of CBR-470-1 (5 uM, pretreated 4 hours prior to PM/LPS) and measured IL-6, TNFa and NQO1 mRNA 4 hours and 24 hours later.

[2] = system: Primary murine alveolar macrophages; experiment: PM-induced mRNA expression in primary murine alveolar macrophages; settings: pretreated 4 hours, 4 hours later
Procedure: FIG. 19A-C. Primary murine alveolar macrophages were treated with PM or vehicle control (media) in the absence or presence of CBR-470-1 (pretreated 4 hours prior to PM) and measured IL-6, TNFa and NQO1 mRNA 4 hours later.

IMR32 cells = experiment: IMR32 viability with co-treatments (cell titer glo); settings: IMR32 cells, 48 hrs, combinations of doses with BBGC
Procedure: FIG. 38. PGK1 toxicity can be rescued with metabolites that are involved with GSH biosynthesis and quenching of reactive oxygen species and methylglyoxal. […] IMR32 cells treated for 48 hr in presence of indicated drugs.
PGK1 toxicity can be rescued with metabolites that are involved with GSH biosynthesis and quenching of reactive oxygen species and methylglyoxal.
IMR32 cells were treated for 48 hrs with CBR-470-1 and/or BBGC at combinations of doses in a synergy matrix (FIG. 41). […] Viability measured using cell titer glo assay (Promega). Viability decreased at higher concentrations of CBR-470-1 and BBGC start at 5 uM. […] Sensitivity of cell lines to direct inhibition of GLO1 (which detoxifies MGO) is generally correlated with sensitivity to PGK1 inhibition with CBR-470-1-consistent with MGO buildup playing a role in toxicity.

20 line panel = experiment: Viability in 20 cell line panel correlated with CCLE mRNA levels
Procedure: FIG. 36A-B. Viability assays performed in each cell line with compound treatment with CBR-470-1. Concentrations ranging from 0.1 to 30 micromolar for 48 hr. Viability was measured using Cell titer glo ATP quantification assay. Representative curves for three cell lines at 48 are shown on the left in (A). Table of 20 cell line IC50 values are shown in (B).
It was analyzed whether 1,3-BPG, which is directly metabolized by PGK1, could be involved in signaling to the KEAP1-NRF2 pathway via phosphoglyceryl-lysine (pgK) modification of KEAP1. […] Viability assays were performed in IMR32, OVCAR3, and A549 cell lines with compound treatment with CBR-470-1. Concentrations ranging from 0.1 to 30 micromolar for 48 hr. Viability was measured using Cell titer glo ATP quantification assay. Representative curves for three cell lines at 48 are shown in (FIG. 36A). Table of 20 cell line IC50 values are shown in (FIG. 36B).
Each point in FIG. 37 represents the correlation value (R^2) between cell line IC50 value (i.e. sensitivity) to CBR-470 plotted against the relative mRNA level (Z-score) for that cell line, and all other cell lines in the 20 line panel. mRNA levels were curated from the cancer cell line encyclopedia (CCLE).

HCT116 = experiment: Viability of HCT116 with genetic manipulation of GLO1 and PGK1
IMR32 = experiment: Seahorse XF96 global bioenergetics in IMR32 cells; settings: IMR32, 1 hr
Procedure: (§1) Cells were plated for 24 hrs., then incubated with the indicated doses of CBR-470 for 1 hr. Under CBR-470-1 treated conditions, cellular ECAR and OCR was recorded for CBR-470 alone, CBR-470+10 mM Glucose, and CBR-470+3 μM Oligomycin.
as §1, with “Genetic manipulation of central glycolytic targets GLO1 and PGK1 regulate viability in the very sensitive colorectal cancer cell line HCT116. […] (FIG. 42). […] Cells” for “Cells”

[3] = pretreated 4 hours, measured 4 hours later

CC(C)CN[C@H]1CS(=O)(=O)C[C@@H]1S(=O)(=O)c1ccc(Cl)cc1 [CBR-470-1]
NQO1 mRNA ([1]; different doses, 4 hours): induced NQO1 (Nrf2 target gene) under both PM and LPS in a dose dependent manner
TNFa mRNA ([1]; different doses, 4 hours): attenuated PM- and LPS-induced TNFa mRNA expression
IL-6 mRNA [1, 3]: abolished PM- and LPS-induced il6 mRNA expression
NQO1 mRNA [1, 3]: induced NQO1 (Nrf2 target gene) under both PM and LPS
TNFa mRNA [1, 3]: abolished PM- and LPS-induced TNFa mRNA expression
IL-6 mRNA [2]: attenuated PM-induced l6 and TNFa mRNA expression
NQO1 mRNA [2]: induced NQO1 (Nrf2 target gene)
TNFa mRNA [2]: attenuated PM-induced l6 and TNFa mRNA expression
viability in synergy matrix with BBGC (IMR32 cells): synergistic effects on viability rather than additivity
sensitivity (IC50) versus GLO1 mRNA level (20 line panel): high GLO1 exhibit higher sensitivity
sensitivity (IC50) versus NRF2 target gene expression (20 line panel): lower NRF2 target gene expression show increased sensitivity
viability sensitivity of PGK1 knockdown cells (HCT116; HCT116, PGK1 knockdown): more sensitive to CBR-470-1 metabolic inhibition
viability sensitivity of cells acclimated to low GLO1 levels (HCT116; HCT116, low GLO1): resistance to CBR-470-1 metabolic inhibition
glycolytic flux (Extracellular Acidification Rate, ECAR) (IMR32): reduced glycolytic flux and oxidative phosphorylation rate
oxidative phosphorylation rate (Oxygen Consumption Rate, OCR) (IMR32): reduced glycolytic flux and oxidative phosphorylation rate
